Assay results taken from patent US11229618B2 (Amarin Pharmaceuticals Ireland Limited, priority 2012, dated 2022).

Test: ANCHOR: plasma fatty acid concentrations, ratios and class proportions (GC/FID)
Format: in vivo, human
Settings: for AA plasma Placebo-adjusted percent change from baseline / DHA plasma Placebo-adjusted percent change from baseline / DPAn-3 plasma Placebo-adjusted percent change from baseline / Linoleic plasma Placebo-adjusted percent change from baseline / Oleic plasma Placebo-adjusted percent change from baseline / Palmitic plasma Placebo-adjusted percent change from baseline / Ratio of AA/EPA plasma Placebo-adjusted percent change from baseline / Ratio of total ω-3/total ω-6 plasma Placebo-adjusted percent change from baseline / Stearic plasma Placebo-adjusted percent change from baseline: week 12, LS mean; for Monounsaturated, proportion of total fatty acids, plasma, Change from baseline / Saturated, proportion of total fatty acids, plasma, Change from baseline / Total ω-3, proportion of total fatty acids, plasma, Change from baseline / Total ω-6, proportion of total fatty acids, plasma, Change from baseline: LS mean (SE); for AA plasma Change from baseline / DHA plasma Change from baseline / DPAn-3 plasma Change from baseline / Linoleic plasma Change from baseline / Oleic plasma Change from baseline / Palmitic plasma Change from baseline / Ratio of AA/EPA plasma Change from baseline / Ratio of total ω-3/total ω-6 plasma Change from baseline / Stearic plasma Change from baseline: baseline to week 12, LS mean; for AA plasma End-of-treatment / DHA plasma End-of-treatment / DPAn-3 plasma End-of-treatment / Linoleic plasma End-of-treatment / Oleic plasma End-of-treatment / Palmitic plasma End-of-treatment / Ratio of AA/EPA plasma End-of-treatment / Ratio of total ω-3/total ω-6 plasma End-of-treatment / Stearic plasma End-of-treatment: week 12, mean; for Monounsaturated, proportion of total fatty acids, plasma, End-of-treatment / Saturated, proportion of total fatty acids, plasma, End-of-treatment / Total ω-3, proportion of total fatty acids, plasma, End-of-treatment / Total ω-6, proportion of total fatty acids, plasma, End-of-treatment: week 12, mean (SD)
Procedure: A multi-center, placebo-controlled, randomized, double-blind, 12-week study was performed to evaluate the efficacy and safety of >96% E-EPA in patients with fasting triglyceride levels≥200 mg/dl and <500 mg/dl despite statin therapy (the mean of two qualifying entry values needed to be ≥185 mg/dl and at least one of the values needed to be ≥200 mg/dl). The primary objective of the study was to determine the efficacy of >96% E-EPA 2 g daily and 4 g daily, compared to placebo, in lowering fasting TG levels in patients with high risk for cardiovascular disease and with fasting TG levels≥200 mg/dL and <500 mg/dL, despite treatment to LDL-C goal on statin therapy.
During the double-blind treatment period, patients were to take 2 capsules (>96% E-EPA or matching placebo) in the morning and 2 capsules in the evening for a total of 4 capsules per day. • Patients in the >96% E-EPA 2 g/day treatment group received 1>96% E-EPA 1 g capsule and 1 matching placebo capsule in the morning and in the evening. • Patients in the >96% E-EPA 4 g/day treatment group received 2>96% E-EPA 1 g capsules in the morning and evening. • Patients in the placebo group received 2 matching placebo capsules in the morning and evening.
Lipids were extracted from plasma and red blood cell (“RBC”) suspensions and converted into fatty acid methyl esters for analysis using a standard validated gas chromatography/flame ionization detection method. Fatty acid parameters were compared between EPA treatment groups and placebo using an ANCOVA model with treatment, gender, type of statin therapy, and presence of diabetes as factors, and the baseline parameter value as a covariate. LSMs, SEs, and 2-tailed 95% confidence intervals for each treatment group and for each comparison were determined.
The monounsaturated fatty acid group included myristoleic, palmitoleic, cis-vaccenic, oleic, gondoic/gadoleic, erucic and nervonic acids. The saturated fatty acid group included myristic, palmitic, stearic, arachidic, behenic and lignoceric acids. The “total ω-3” group included α-linolenic, stearidonic, eicosatrienoic, ω-3 arachidonic, eicosapentaenoic, ω-3 docosapentaenoic and docosahecaenoic acids. The “total ω-6” group included linoleic, γ-linolenic, eicosadienoic, dihomo-γ-linolenic, ω-6 arachidonic, adrenic, and ω-6 docosapentaenoic acids. The “total fatty acid” group represented the sum of the monounsaturated, saturated, total ω-3 and total ω-6 groups.

CC/C=C\C/C=C\C/C=C\C/C=C\C/C=C\CCCC(=O)OCC [IPE, all-cis eicosa-5,8,11,14,17-pentaenoic acid ethyl ester]
Monounsaturated, proportion of total fatty acids, plasma, Placebo-adjusted percent change from baseline (2 g/day vs placebo): −1.4%
Saturated, proportion of total fatty acids, plasma, Placebo-adjusted percent change from baseline (2 g/day vs placebo): −0.2%
Total ω-3, proportion of total fatty acids, plasma, Placebo-adjusted percent change from baseline (2 g/day vs placebo): 60.3%
Total ω-6, proportion of total fatty acids, plasma, Placebo-adjusted percent change from baseline (2 g/day vs placebo): −4.6%
AA plasma Placebo-adjusted percent change from baseline (2 g/day vs placebo): −19.1%
DHA plasma Placebo-adjusted percent change from baseline (2 g/day vs placebo): −0.7%
DPAn-3 plasma Placebo-adjusted percent change from baseline (2 g/day vs placebo): 88.9%
Linoleic plasma Placebo-adjusted percent change from baseline (2 g/day vs placebo): −14.5%
Oleic plasma Placebo-adjusted percent change from baseline (2 g/day vs placebo): −14.3%
Palmitic plasma Placebo-adjusted percent change from baseline (2 g/day vs placebo): −12.1%
Ratio of AA/EPA plasma Placebo-adjusted percent change from baseline (2 g/day vs placebo): −75.4%
Ratio of total ω-3/total ω-6 plasma Placebo-adjusted percent change from baseline (2 g/day vs placebo): 64.3%
Stearic plasma Placebo-adjusted percent change from baseline (2 g/day vs placebo): −12.6%
Monounsaturated, proportion of total fatty acids, plasma, Change from baseline (2 g/day): −0.7 (0.4) mol %
Saturated, proportion of total fatty acids, plasma, Change from baseline (2 g/day): −0.7 (0.3) mol %
Total ω-3, proportion of total fatty acids, plasma, Change from baseline (2 g/day): 2.1 (0.2) mol %
Total ω-6, proportion of total fatty acids, plasma, Change from baseline (2 g/day): −0.8 (0.5) mol %
AA plasma Change from baseline (2 g/day): −31.1
DHA plasma Change from baseline (2 g/day): 5.0
DPAn-3 plasma Change from baseline (2 g/day): 22.4
Linoleic plasma Change from baseline (2 g/day): −35.0
Oleic plasma Change from baseline (2 g/day): −61.7
Palmitic plasma Change from baseline (2 g/day): −50.1
Ratio of AA/EPA plasma Change from baseline (2 g/day): −11.2
Ratio of total ω-3/total ω-6 plasma Change from baseline (2 g/day): 0.1
Stearic plasma Change from baseline (2 g/day): −19.6
AA plasma End-of-treatment (2 g/day): 266.7
DHA plasma End-of-treatment (2 g/day): 62.7
DPAn-3 plasma End-of-treatment (2 g/day): 44.3
Linoleic plasma End-of-treatment (2 g/day): 1082
Oleic plasma End-of-treatment (2 g/day): 972.1
Palmitic plasma End-of-treatment (2 g/day): 1004
Ratio of AA/EPA plasma End-of-treatment (2 g/day): 3.4
Ratio of total ω-3/total ω-6 plasma End-of-treatment (2 g/day): 0.2
Stearic plasma End-of-treatment (2 g/day): 276.2
Monounsaturated, proportion of total fatty acids, plasma, End-of-treatment (2 g/day): 28.0 (2.8) mol %
Saturated, proportion of total fatty acids, plasma, End-of-treatment (2 g/day): 33.6 (2.2) mol %
Total ω-3, proportion of total fatty acids, plasma, End-of-treatment (2 g/day): 5.1 (1.2) mol %
Total ω-6, proportion of total fatty acids, plasma, End-of-treatment (2 g/day): 33.3 (3.4) mol %
Monounsaturated, proportion of total fatty acids, plasma, Placebo-adjusted percent change from baseline (4 g/day vs placebo): −5.8%
Saturated, proportion of total fatty acids, plasma, Placebo-adjusted percent change from baseline (4 g/day vs placebo): 0.4%
Total ω-3, proportion of total fatty acids, plasma, Placebo-adjusted percent change from baseline (4 g/day vs placebo): 142.2%
Total ω-6, proportion of total fatty acids, plasma, Placebo-adjusted percent change from baseline (4 g/day vs placebo): −7.4%
AA plasma Placebo-adjusted percent change from baseline (4 g/day vs placebo): −30.7%
DHA plasma Placebo-adjusted percent change from baseline (4 g/day vs placebo): −2.9%
DPAn-3 plasma Placebo-adjusted percent change from baseline (4 g/day vs placebo): 143.6%
Linoleic plasma Placebo-adjusted percent change from baseline (4 g/day vs placebo): −24.8%
Oleic plasma Placebo-adjusted percent change from baseline (4 g/day vs placebo): −30.1%
Palmitic plasma Placebo-adjusted percent change from baseline (4 g/day vs placebo): −23.3%
Ratio of AA/EPA plasma Placebo-adjusted percent change from baseline (4 g/day vs placebo): −90.3%
Ratio of total ω-3/total ω-6 plasma Placebo-adjusted percent change from baseline (4 g/day vs placebo): 165.9%
Stearic plasma Placebo-adjusted percent change from baseline (4 g/day vs placebo): −16.5%
Monounsaturated, proportion of total fatty acids, plasma, Change from baseline (4 g/day): −2.0 (0.4) mol %
Saturated, proportion of total fatty acids, plasma, Change from baseline (4 g/day): −0.5 (0.3) mol %
Total ω-3, proportion of total fatty acids, plasma, Change from baseline (4 g/day): 4.4 (0.2) mol %
Total ω-6, proportion of total fatty acids, plasma, Change from baseline (4 g/day): −1.8 (0.5) mol %
AA plasma Change from baseline (4 g/day): −60.1
DHA plasma Change from baseline (4 g/day): 2.3
DPAn-3 plasma Change from baseline (4 g/day): 31.8
Linoleic plasma Change from baseline (4 g/day): −152
Oleic plasma Change from baseline (4 g/day): −219
Palmitic plasma Change from baseline (4 g/day): −161
Ratio of AA/EPA plasma Change from baseline (4 g/day): −14.1
Ratio of total ω-3/total ω-6 plasma Change from baseline (4 g/day): 0.2
Stearic plasma Change from baseline (4 g/day): −31.2
AA plasma End-of-treatment (4 g/day): 222.8
DHA plasma End-of-treatment (4 g/day): 53.6
DPAn-3 plasma End-of-treatment (4 g/day): 50.2
Linoleic plasma End-of-treatment (4 g/day): 921.8
Oleic plasma End-of-treatment (4 g/day): 782.5
Palmitic plasma End-of-treatment (4 g/day): 843.8
Ratio of AA/EPA plasma End-of-treatment (4 g/day): 1.6
Ratio of total ω-3/total ω-6 plasma End-of-treatment (4 g/day): 0.2
Stearic plasma End-of-treatment (4 g/day): 253.4
Monounsaturated, proportion of total fatty acids, plasma, End-of-treatment (4 g/day): 26.7 (3.0) mol %
Saturated, proportion of total fatty acids, plasma, End-of-treatment (4 g/day): 33.6 (2.4) mol %
Total ω-3, proportion of total fatty acids, plasma, End-of-treatment (4 g/day): 7.1 (2.0) mol %
Total ω-6, proportion of total fatty acids, plasma, End-of-treatment (4 g/day): 32.6 (3.5) mol %
